PMC4791274, “Cerdulatinib, a novel dual SYK/JAK kinase inhibitor, has broad anti-tumor activity in both ABC and GCB types of diffuse large B cell lymphoma” (Oncotarget, 2015)

Assays:
[1] = test system: BCR-stimulated DLBCL cells; assay: annexin V / 7-AAD viability under BCR stimulation; type: cell-based; conditions: 3 μM, 48 h, anti-IgM and anti-IgG stimulation, all cell lines tested
Procedure: (§1) DLBCL cell lines were treated with various concentrations of cerdulatinib for up to 72 h. The metabolic activities of cells were determined with MTT assay according to manufacturer's instruction (Roche Applied Science, Indianapolis, IN) at 72 h time point. IC50 was calculated using the Sigma Plot generated with GraphPad Prism 6 software (GraphPad, La Jolla, CA). Cell growth was measured at every 24 h counting live cells with flow cytometry as previously described. Cells were collected every 24 h and cell viability was determined by the PE Annexin V Apoptosis Detection Kit I (BD Biosciences).

RET = conditions: biochemical assay; cited from earlier work
LY18 cells [2] = assay: cell cycle analysis, BrdU incorporation; type: cell-based; conditions: LY18, 48 h
Procedure: (§2) DLBCL cells were treated with various concentrations of cerdulatinib for 48 h. Cells were incubated with 10 μM BrdU (BD Biosciences, San Jose, CA) at 37°C for 2 h, and stained with PE conjugated anti-BrdU antibody (BD Biosciences) according to the supplier's manual. The percentage of cell cycle distribution was analyzed with FlowJo (Tree Star Inc. Ashland, OR).

DHL6 cells = assay: cell cycle analysis, BrdU incorporation; type: cell-based; conditions: DHL6, 48 h
Procedure: as §2

LY3 cells = assay: cell cycle analysis, BrdU incorporation; type: cell-based; conditions: LY3, 48 h
Procedure: as §2

HBL1 cells = assay: cell cycle analysis, BrdU incorporation; type: cell-based; conditions: HBL1, 48 h
Procedure: as §2

DHL2 cells = assay: cell cycle analysis, BrdU incorporation; type: cell-based; conditions: DHL2, 48 h
Procedure: as §2

[3] = test system: splenomegaly induced by chronic BCR stimulation; conditions: mice; cited from earlier work
DLBCL cell lines = assay: annexin V / 7-AAD cell viability by flow cytometry; type: cell-based; conditions: all tested cell lines with the exception of LY18; up to 72 h; concentration- and time-dependent
Procedure: as §1

JAK2 [4] = conditions: cited from earlier work
FMS = conditions: biochemical assay; cited from earlier work
FLT4 = conditions: biochemical assay; cited from earlier work
TBK1 = conditions: biochemical assay; cited from earlier work
RSK4 = conditions: biochemical assay; cited from earlier work
LY18 cells [5] = assay: PARP and caspase 3 cleavage, Western blotting; type: cell-based; conditions: LY18, 48 h
Procedure: Immunoblotting were performed as previously described. Antibodies including total STAT3, SYK, PLCγ2, AKT, ERK1/2, PARP, caspase 3, and phosphorylated STAT3 (S727), STAT3 (Y705), SYK (Y525/526), PLCγ2 (Y759), PLCγ2 (Y1217), AKT (S473), ERK1/2 (Y204) and RB (S807/811) were purchased from Cell Signaling (Danvers, MA). Cyclin E antibody was purchased from Santa Cruz Biotechnology (Dallas, TX), and β-actin antibody was purchased from Sigma-Aldrich (St Louis, MO). Antibodies used in phosphoflow assay, including phosphorylated STAT3 (S727), SYK (Y525/526), PLCγ2 (Y759), AKT (S473), and ERK1/2 (Y204) were purchased from BD Biosciences (San Jose, CA).

JAK2 [6] = conditions: biochemical assay; cited from earlier work
[7] = test system: LY8 (OCI-LY8) GCB DLBCL cell line; assay: MTT assay (cellular metabolic activity), 72 h; type: cell-based; conditions: OCI-Ly8, 72 h
Procedure: as §1

[8] = test system: SUDHL2 ABC DLBCL cell line; assay: MTT assay (cellular metabolic activity), 72 h; type: cell-based; conditions: Homo sapiens, SU-DHL-2; SUDHL2, 72 h
Procedure: as §1

[9] = test system: LY3 (OCI-LY3) ABC DLBCL cell line; assay: MTT assay (cellular metabolic activity), 72 h; type: cell-based; conditions: Homo sapiens, OCI-Ly3, 72 h
Procedure: as §1

HBL1 ABC DLBCL cell line = assay: MTT assay (cellular metabolic activity), 72 h; type: cell-based; conditions: HBL1, 72 h
Procedure: as §1

[10] = test system: SUDHL6 GCB DLBCL cell line; assay: MTT assay (cellular metabolic activity), 72 h; type: cell-based; conditions: Homo sapiens, SU-DHL-6; SUDHL6, 72 h
Procedure: as §1

VAL GCB DLBCL cell line = assay: MTT assay (cellular metabolic activity), 72 h; type: cell-based
Procedure: as §1

[11] = test system: LY18 (OCI-LY18) GCB DLBCL cell line; assay: MTT assay (cellular metabolic activity), 72 h; type: cell-based; conditions: Homo sapiens, OCI-Ly18, 72 h
Procedure: as §1

[12] = test system: LY10 (OCI-LY10) ABC DLBCL cell line; assay: MTT assay (cellular metabolic activity), 72 h; type: cell-based; conditions: LY10, 72 h
Procedure: as §1

[13] = test system: LY4 (OCI-LY4) GCB DLBCL cell line; assay: MTT assay (cellular metabolic activity), 72 h; type: cell-based; conditions: LY4, 72 h
Procedure: as §1

[14] = test system: U2932 ABC DLBCL cell line; assay: MTT assay (cellular metabolic activity), 72 h; type: cell-based; conditions: Homo sapiens, U2932, 72 h
Procedure: as §1

[15] = test system: LY1 (OCI-LY1) GCB DLBCL cell line; assay: MTT assay (cellular metabolic activity), 72 h; type: cell-based; conditions: Homo sapiens, OCI-Ly1, 72 h
Procedure: as §1

AMPK = conditions: biochemical assay; cited from earlier work
RSK2 = conditions: biochemical assay; cited from earlier work

IC50 [7]: 50 nM | IC50 [8]: 980 nM | IC50 [9]: 1660 nM | IC50 [10]: 100 nM | IC50 [11]: 160 nM | IC50 [12]: 290 nM | IC50 [13]: 2100 nM | IC50 [15]: 270 nM
Compound: CCS(=O)(=O)N1CCN(c2ccc(Nc3ncc(C(N)=O)c(NC4CC4)n3)cc2)CC1 [cerdulatinib]
viability of stimulated DLBCL cells [1]: reduced | IC50 (RET): 105 nM | S phase fraction (LY18 cells [2]): significant dose-dependent reduction | S phase fraction (DHL6 cells): significant dose-dependent reduction | effect on S phase fraction (LY3 cells): modest | S phase fraction (HBL1 cells): significant dose-dependent reduction | effect on S phase fraction (DHL2 cells): modest | splenomegaly [3]: alleviates splenomegaly | cell viability (annexin V-/7-AAD-) (DLBCL cell lines): reduced | cellular activity against JAK2 (JAK2 [4]): lacking cellular activity | IC50 (FMS): 5 nM | IC50 (FLT4): 51 nM | IC50 (TBK1): 10 nM | IC50 (RSK4): 28 nM | PARP and caspase 3 cleavage (LY18 cells [5]): little changes | IC50 (JAK2 [6]): 6 nM | IC50 (HBL1 ABC DLBCL cell line): 540 nM | IC50 (VAL GCB DLBCL cell line): 130 nM | IC50 [14]: 1800 nM | IC50 (AMPK): 6 nM | IC50 (RSK2): 20 nM
